According to ChEMBL document CHEMBL2321687, “Identification of a novel arylpiperazine scaffold for fatty acid amide hydrolase inhibition with improved drug disposition properties” (Bioorg Med Chem Lett, 2013):
One block for each molecule: values may come before it.

Tests used:
[1] = target: 5-hydroxytryptamine receptor 3A (Homo sapiens) (UniProt P46098); experiment: Displacement of [3H]BRL43694 from human recombinant 5-HT3 receptor expressed in CHO cells at 1 uM; type: cell-based
[2] = target: Vasopressin V1a receptor (Homo sapiens) (UniProt P37288); experiment: Displacement of [3H]AVP from human recombinant V1a receptor expressed in CHO cells at 1 uM; type: cell-based
[3] = target: 5-hydroxytryptamine receptor 7 (Homo sapiens) (UniProt P34969); experiment: Displacement of [3H]LSD from human recombinant 5-HT7 receptor expressed in CHO cells at 1 uM; type: cell-based
[4] = target: D(2) dopamine receptor (Homo sapiens) (UniProt P14416); experiment: Displacement of [3H]spiperone from human recombinant D2S receptor expressed in HEK293 cells at 1 uM; type: cell-based
[5] = target: Sodium-dependent noradrenaline transporter (Homo sapiens) (UniProt P23975); experiment: Displacement of [3H]nisoxetine from human recombinant NE transporter expressed in CHO cells at 1 uM; type: cell-based
[6] = target: Adenosine receptor A1 (Homo sapiens) (UniProt P30542); experiment: Displacement of [3H]DPCPX from human recombinant adenosine A1 receptor expressed in CHO cells at 1 uM; type: cell-based
[7] = target: Endothelin-1 receptor (Homo sapiens) (UniProt P25101); experiment: Displacement of [125I]endothelin-1 from human recombinant ETA receptor expressed in CHO cells at 1 uM; type: cell-based
[8] = target: Beta-1 adrenergic receptor (Homo sapiens) (UniProt P08588); experiment: Displacement of [3H](-)CGP12177 from human recombinant beta1 receptor expressed in HEK293 cells at 1 uM; type: cell-based
[9] = target: Galanin receptor type 2 (Homo sapiens) (UniProt O43603); experiment: Displacement of [125I]Galanin from human recombinant GAL2 receptor expressed in CHO cells at 1 uM; type: cell-based
[10] = target: Vasoactive intestinal polypeptide receptor 1 (Homo sapiens) (UniProt P32241); experiment: Displacement of [125I]VIP from human recombinant VPAC1 receptor expressed in CHO cells at 1 uM; type: cell-based
[11] = target: 5-hydroxytryptamine receptor 5A (Homo sapiens) (UniProt P47898); experiment: Displacement of [3H]LSD from human recombinant 5-HT5A receptor expressed in CHO cells at 1 uM; type: cell-based
[12] = target: Adenosine receptor A3 (Homo sapiens) (UniProt P0DMS8); experiment: Displacement of [3H]AB-MECA from human recombinant adenosine A3 receptor expressed in HEK293 cells at 1 uM; type: cell-based
[13] = target: 5-hydroxytryptamine receptor 6 (Homo sapiens) (UniProt P50406); experiment: Displacement of [3H]LSD from human recombinant 5-HT6 receptor expressed in CHO cells at 1 uM; type: cell-based
[14] = target: Substance-K receptor (Homo sapiens) (UniProt P21452); experiment: Displacement of [125I]NKA from human recombinant NK2 receptor expressed in CHO cells at 1 uM; type: cell-based
[15] = target: Nociceptin receptor (Homo sapiens) (UniProt P41146); experiment: Displacement of [3H]Nociceptin from human recombinant ORL1 receptor expressed in HEK293 cells at 1 uM; type: cell-based
[16] = species: Rattus norvegicus; experiment: Displacement of [3H]flunitrazepam from rat central BZD receptor in cerebral cortex; type: tissue-based; conditions: concentration not given here
[17] = target: Somatostatin receptor (Mus musculus) (UniProt P30935+O08858+P30875+P30873+P49660); experiment: Displacement of [125I]Tyr11-somatostatin-14 from mouse sst receptor in AtT20 cells; type: cell-based; conditions: concentration not given here
[18] = target: Histamine H2 receptor (Homo sapiens) (UniProt P25021); experiment: Displacement of [125I]APT from human recombinant H2 receptor expressed in CHO cells at 1 uM; type: cell-based
[19] = target: Muscarinic acetylcholine receptor M2 (Homo sapiens) (UniProt P08172); experiment: Displacement of [3H]AF-DX384 from human recombinant muscarinic M2 receptor expressed in CHO cells at 1 uM; type: cell-based
[20] = species: Rattus norvegicus; experiment: Displacement of [3H](-)D888 from rat L-type Ca2+ channel verapamil site in cerebral cortex; type: tissue-based; conditions: concentration not given here
[21] = target: Adenosine receptor A2a (Homo sapiens) (UniProt P29274); experiment: Displacement of [3H]CGS21680 from human recombinant adenosine A2A receptor expressed in HEK293 cells at 1 uM; type: cell-based
[22] = target: Kappa-type opioid receptor (Rattus norvegicus) (UniProt P34975); experiment: Displacement of [3H]U69593 from rat recombinant kappa opioid receptor expressed in CHO cells at 1 uM; type: cell-based
[23] = target: Adrenergic receptor alpha-2 (Rattus norvegicus) (UniProt P22086+P19328+P22909); experiment: Displacement of [3H]RX821002 from rat alpha2 receptor in cerebral cortex; type: tissue-based; conditions: concentration not given here
[24] = target: Histamine H1 receptor (Homo sapiens) (UniProt P35367); experiment: Displacement of [3H]pyrilamine from human recombinant H1 receptor expressed in HEK293 cells at 1 uM; type: cell-based
[25] = target: Muscarinic acetylcholine receptor M3 (Homo sapiens) (UniProt P20309); experiment: Displacement of [3H]4-DAMP from human recombinant muscarinic M3 receptor expressed in CHO cells at 1 uM; type: cell-based
[26] = target: C-X-C chemokine receptor type 2 (Homo sapiens) (UniProt P25025); experiment: Displacement of [125I]IL-8 from human recombinant CXCR2 receptor expressed in HEK293 cells at 1 uM; type: cell-based
[27] = system: CHO; experiment: Displacement of [3H]DADLE from human recombinant delta2 opioid receptor expressed in CHO cells at 1 uM; type: cell-based
[28] = target: Type-1 angiotensin II receptor (Homo sapiens) (UniProt P30556); experiment: Displacement of [125I][Sar1,Ile8]-AT II from human recombinant AT1 receptor expressed in HEK293 cells at 1 uM; type: cell-based
[29] = target: Sodium-dependent serotonin transporter (Homo sapiens) (UniProt P31645); experiment: Displacement of [3H]imipramine from human recombinant 5-HT transporter expressed in CHO cells at 1 uM; type: cell-based
[30] = species: Rattus norvegicus; experiment: Displacement of [3H]batrachotoxinin from rat Na+ channel site 2 in cerebral cortex; type: tissue-based; conditions: concentration not given here
[31] = target: Melanocortin receptor 4 (Homo sapiens) (UniProt P32245); experiment: Displacement of [125I]NDP-a-MSH from human recombinant MC4 receptor expressed in CHO cells at 1 uM; type: cell-based
[32] = target: Adrenergic receptor alpha-1 (Rattus norvegicus) (UniProt P15823+P23944+P43140); experiment: Displacement of [3H]prazosin from rat alpha1 receptor in cerebral cortex; type: tissue-based; conditions: concentration not given here
[33] = target: Cannabinoid receptor 1 (Homo sapiens) (UniProt P21554); experiment: Displacement of [3H]CP55940 from human recombinant CB1 receptor expressed in CHO cells at 1 uM; type: cell-based
[34] = target: Mu-type opioid receptor (Homo sapiens) (UniProt P35372); experiment: Displacement of [3H]DAMGO from human recombinant mu opioid receptor expressed in HEK293 cells at 1 uM; type: cell-based
[35] = target: Muscarinic acetylcholine receptor M1 (Homo sapiens) (UniProt P11229); experiment: Displacement of [3H]pirenzepine from human recombinant muscarinic M1 receptor expressed in CHO cells at 1 uM; type: cell-based
[36] = target: Beta-2 adrenergic receptor (Homo sapiens) (UniProt P07550); experiment: Displacement of [3H](-)CGP12177 from human recombinant beta2 receptor expressed in CHO cells at 1 uM; type: cell-based
[37] = target: Cholecystokinin receptor type A (Homo sapiens) (UniProt P32238); experiment: Displacement of [125I]CCK-8 from human recombinant CCKA receptor expressed in CHO cells at 1 uM; type: cell-based
[38] = species: Rattus norvegicus; experiment: Displacement of [35S]TBPS from rat GABA gated chloride channel in cerebral cortex; type: tissue-based; conditions: concentration not given here
[39] = target: B2 bradykinin receptor (Homo sapiens) (UniProt P30411); experiment: Displacement of [3H]bradykinin from human recombinant B2 receptor expressed in CHO cells at 1 uM; type: cell-based
[40] = target: D(1A) dopamine receptor (Homo sapiens) (UniProt P21728); experiment: Displacement of [3H]SCH23390 from human recombinant D1 receptor expressed in CHO cells at 1 uM; type: cell-based
[41] = target: 5-hydroxytryptamine receptor 2B (Homo sapiens) (UniProt P41595); experiment: Displacement of [125I](+/-)DOI from human recombinant 5-HT2B receptor expressed in CHO cells at 1 uM; type: cell-based
[42] = target: T1, Fatty-acid amide hydrolase 1 (Mus musculus, UniProt O08914); experiment: Inhibition of FAAH in mouse brain homogenate using [3Hethanolamine]AEA as substrate incubated for 20 mins prior to substrate addition measured after 15 mins by beta counting analysis; type: tissue-based
T1 sequence (O08914 whole entry): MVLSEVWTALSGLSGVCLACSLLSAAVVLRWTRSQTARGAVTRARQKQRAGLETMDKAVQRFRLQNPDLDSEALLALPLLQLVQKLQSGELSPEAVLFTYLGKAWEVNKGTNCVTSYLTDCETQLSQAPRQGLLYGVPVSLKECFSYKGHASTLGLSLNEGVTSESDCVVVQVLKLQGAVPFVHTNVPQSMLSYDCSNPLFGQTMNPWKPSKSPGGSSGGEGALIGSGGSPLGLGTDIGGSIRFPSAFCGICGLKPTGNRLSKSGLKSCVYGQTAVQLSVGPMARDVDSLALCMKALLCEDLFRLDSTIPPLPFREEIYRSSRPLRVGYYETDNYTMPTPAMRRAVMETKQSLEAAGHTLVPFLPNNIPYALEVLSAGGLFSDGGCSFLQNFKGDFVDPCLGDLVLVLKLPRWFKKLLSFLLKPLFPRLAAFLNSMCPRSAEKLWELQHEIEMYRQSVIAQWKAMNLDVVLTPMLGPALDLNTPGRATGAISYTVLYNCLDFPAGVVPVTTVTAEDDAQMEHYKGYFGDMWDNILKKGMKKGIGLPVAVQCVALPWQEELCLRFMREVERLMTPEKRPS

[43] = target: 5-hydroxytryptamine receptor 1A (Homo sapiens) (UniProt P08908); experiment: Displacement of [3H]8-OH-DPAT from human recombinant 5-HT1A receptor expressed in HEK293 cells at 1 uM; type: cell-based
[44] = target: Neuromedin-K receptor (Homo sapiens) (UniProt P29371); experiment: Displacement of [3H]SR142801 from human recombinant NK3 receptor expressed in CHO cells at 1 uM; type: cell-based
[45] = target: Melatonin receptor type 1A (Homo sapiens) (UniProt P48039); experiment: Displacement of [125I]2-iodomelatonin from human recombinant MT1 receptor expressed in CHO cells at 1 uM; type: cell-based
[46] = target: 5-hydroxytryptamine receptor 1B (Rattus norvegicus) (UniProt P28564); experiment: Displacement of [125I]CYP from rat 5-HT1B receptor in cerebral cortex; type: tissue-based; conditions: concentration not given here
[47] = target: Neuropeptide Y receptor type 2 (Homo sapiens) (UniProt P49146); experiment: Displacement of [125I]peptideYY from human Y2 receptor in KAN-TS cells; type: cell-based; conditions: concentration not given here
[48] = species: Rattus norvegicus; experiment: Displacement of [125I]a-dendrotoxin from rat K+ V channel in cerebral cortex; type: tissue-based; conditions: concentration not given here
[49] = target: 5-hydroxytryptamine receptor 2A (Homo sapiens) (UniProt P28223); experiment: Displacement of [3H]Ketanserin from human recombinant 5-HT2A receptor expressed in HEK293 cells at 1 uM; type: cell-based
[50] = target: Sodium-dependent dopamine transporter (Homo sapiens) (UniProt Q01959); experiment: Displacement of [3H]BTCP from human recombinant DA transporter expressed in CHO cells at 1 uM; type: cell-based
[51] = target: Thromboxane A2 receptor (Homo sapiens) (UniProt P21731); experiment: Displacement of [3H]SQ29548 from human recombinant TP receptor expressed in HEK293 cells at 1 uM; type: cell-based
[52] = species: Rattus norvegicus; experiment: Displacement of [3H]GABA from rat GABA in cerebral cortex; type: tissue-based; conditions: concentration not given here

Sodium-dependent noradrenaline transporter (Homo sapiens), sequence (P23975 whole entry): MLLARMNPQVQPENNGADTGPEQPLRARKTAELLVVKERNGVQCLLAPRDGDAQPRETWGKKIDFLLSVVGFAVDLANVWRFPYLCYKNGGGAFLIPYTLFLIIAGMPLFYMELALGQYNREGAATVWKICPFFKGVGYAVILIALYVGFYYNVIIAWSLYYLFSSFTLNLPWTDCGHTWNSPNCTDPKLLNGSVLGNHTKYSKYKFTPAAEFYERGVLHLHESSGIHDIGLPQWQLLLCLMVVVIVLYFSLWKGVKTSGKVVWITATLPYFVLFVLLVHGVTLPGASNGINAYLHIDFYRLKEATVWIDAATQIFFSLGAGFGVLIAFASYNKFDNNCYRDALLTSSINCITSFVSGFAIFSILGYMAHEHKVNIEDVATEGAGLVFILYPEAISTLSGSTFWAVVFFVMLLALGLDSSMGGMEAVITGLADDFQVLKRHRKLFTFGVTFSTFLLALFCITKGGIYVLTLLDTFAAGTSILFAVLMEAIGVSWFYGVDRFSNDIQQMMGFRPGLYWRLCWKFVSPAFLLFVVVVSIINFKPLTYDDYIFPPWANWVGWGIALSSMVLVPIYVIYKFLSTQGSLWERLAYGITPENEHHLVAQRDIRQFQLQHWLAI
5-hydroxytryptamine receptor 1A (Homo sapiens), sequence (P08908 whole entry): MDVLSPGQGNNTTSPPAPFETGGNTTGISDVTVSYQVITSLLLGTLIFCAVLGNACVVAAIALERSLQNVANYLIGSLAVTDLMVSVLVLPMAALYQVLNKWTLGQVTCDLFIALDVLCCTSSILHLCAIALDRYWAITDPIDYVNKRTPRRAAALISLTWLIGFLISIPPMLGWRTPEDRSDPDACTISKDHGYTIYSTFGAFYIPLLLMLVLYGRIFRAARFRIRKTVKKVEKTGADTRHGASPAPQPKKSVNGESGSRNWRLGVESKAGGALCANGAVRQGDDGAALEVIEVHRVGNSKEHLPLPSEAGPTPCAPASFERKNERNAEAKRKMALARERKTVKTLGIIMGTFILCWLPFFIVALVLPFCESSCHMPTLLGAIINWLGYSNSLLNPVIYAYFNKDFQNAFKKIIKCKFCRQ
5-hydroxytryptamine receptor 7 (Homo sapiens), sequence (P34969 whole entry): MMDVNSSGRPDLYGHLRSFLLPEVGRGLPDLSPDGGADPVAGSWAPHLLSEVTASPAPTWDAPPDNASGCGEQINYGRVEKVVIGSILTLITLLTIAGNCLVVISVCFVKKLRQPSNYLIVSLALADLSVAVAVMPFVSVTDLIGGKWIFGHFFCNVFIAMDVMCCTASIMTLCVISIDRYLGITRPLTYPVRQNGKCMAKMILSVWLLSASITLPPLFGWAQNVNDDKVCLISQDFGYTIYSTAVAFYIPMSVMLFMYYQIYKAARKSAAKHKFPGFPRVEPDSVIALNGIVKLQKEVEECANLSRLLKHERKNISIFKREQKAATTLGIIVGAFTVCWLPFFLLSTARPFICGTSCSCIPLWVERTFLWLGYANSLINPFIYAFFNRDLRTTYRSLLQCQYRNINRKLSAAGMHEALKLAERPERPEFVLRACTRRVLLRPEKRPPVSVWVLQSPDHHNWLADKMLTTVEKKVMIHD
Adenosine receptor A1 (Homo sapiens), sequence (P30542 whole entry): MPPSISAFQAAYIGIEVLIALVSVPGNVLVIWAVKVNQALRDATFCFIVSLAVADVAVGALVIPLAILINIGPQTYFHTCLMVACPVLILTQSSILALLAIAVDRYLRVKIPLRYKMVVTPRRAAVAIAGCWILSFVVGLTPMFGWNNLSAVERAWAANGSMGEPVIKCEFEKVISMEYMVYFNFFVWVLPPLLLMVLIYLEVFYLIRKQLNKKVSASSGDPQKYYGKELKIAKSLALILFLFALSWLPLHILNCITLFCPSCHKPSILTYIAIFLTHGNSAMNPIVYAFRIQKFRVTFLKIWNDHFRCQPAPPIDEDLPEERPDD
Cholecystokinin receptor type A (Homo sapiens), sequence (P32238 whole entry): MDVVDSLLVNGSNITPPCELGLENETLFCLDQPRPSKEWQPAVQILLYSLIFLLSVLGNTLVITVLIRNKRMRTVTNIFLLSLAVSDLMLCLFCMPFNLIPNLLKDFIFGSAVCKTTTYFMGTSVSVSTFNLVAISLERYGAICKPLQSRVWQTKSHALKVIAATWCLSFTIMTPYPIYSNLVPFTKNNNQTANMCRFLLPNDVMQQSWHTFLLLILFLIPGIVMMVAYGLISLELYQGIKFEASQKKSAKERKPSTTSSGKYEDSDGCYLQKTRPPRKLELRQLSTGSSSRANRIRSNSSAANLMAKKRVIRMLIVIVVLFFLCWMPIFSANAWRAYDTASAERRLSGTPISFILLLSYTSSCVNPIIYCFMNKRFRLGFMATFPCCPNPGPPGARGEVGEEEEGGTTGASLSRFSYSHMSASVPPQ
C-X-C chemokine receptor type 2 (Homo sapiens), sequence (P25025 whole entry): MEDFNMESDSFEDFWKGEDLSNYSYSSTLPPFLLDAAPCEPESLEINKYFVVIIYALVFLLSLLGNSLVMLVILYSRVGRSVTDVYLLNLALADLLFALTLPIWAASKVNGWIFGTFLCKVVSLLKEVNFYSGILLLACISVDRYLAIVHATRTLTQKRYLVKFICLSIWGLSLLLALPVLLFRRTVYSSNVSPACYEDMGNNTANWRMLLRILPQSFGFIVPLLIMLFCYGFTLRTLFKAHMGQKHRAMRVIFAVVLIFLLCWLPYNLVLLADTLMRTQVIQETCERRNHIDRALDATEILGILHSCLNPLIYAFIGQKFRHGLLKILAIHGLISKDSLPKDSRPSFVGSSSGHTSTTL
5-hydroxytryptamine receptor 2B (Homo sapiens), sequence (P41595 whole entry): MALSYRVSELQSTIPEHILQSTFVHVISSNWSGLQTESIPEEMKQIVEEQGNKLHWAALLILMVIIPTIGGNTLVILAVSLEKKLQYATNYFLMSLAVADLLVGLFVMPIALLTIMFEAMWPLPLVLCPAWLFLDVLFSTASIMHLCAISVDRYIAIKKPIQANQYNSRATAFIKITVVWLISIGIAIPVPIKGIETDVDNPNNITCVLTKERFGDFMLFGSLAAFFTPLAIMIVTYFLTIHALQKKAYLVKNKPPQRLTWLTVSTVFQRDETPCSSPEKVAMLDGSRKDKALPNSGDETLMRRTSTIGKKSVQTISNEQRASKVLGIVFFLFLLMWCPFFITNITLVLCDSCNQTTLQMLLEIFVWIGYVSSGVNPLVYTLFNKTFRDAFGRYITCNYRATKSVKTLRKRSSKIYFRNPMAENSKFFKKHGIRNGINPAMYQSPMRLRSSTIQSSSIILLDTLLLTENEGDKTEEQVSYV
Muscarinic acetylcholine receptor M2 (Homo sapiens), sequence (P08172 whole entry): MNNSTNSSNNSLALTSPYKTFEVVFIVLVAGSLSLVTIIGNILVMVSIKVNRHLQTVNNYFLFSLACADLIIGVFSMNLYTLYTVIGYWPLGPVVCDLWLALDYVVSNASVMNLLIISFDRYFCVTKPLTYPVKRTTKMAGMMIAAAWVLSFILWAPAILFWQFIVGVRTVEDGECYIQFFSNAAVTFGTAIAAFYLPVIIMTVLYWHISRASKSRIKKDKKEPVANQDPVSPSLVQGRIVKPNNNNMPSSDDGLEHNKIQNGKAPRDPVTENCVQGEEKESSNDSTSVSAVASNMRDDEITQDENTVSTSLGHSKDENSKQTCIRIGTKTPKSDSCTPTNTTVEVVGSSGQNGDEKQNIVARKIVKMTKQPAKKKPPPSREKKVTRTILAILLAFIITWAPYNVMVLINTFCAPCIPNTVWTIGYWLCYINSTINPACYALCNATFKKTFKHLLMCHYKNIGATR
Beta-1 adrenergic receptor (Homo sapiens), sequence (P08588 whole entry, looked up): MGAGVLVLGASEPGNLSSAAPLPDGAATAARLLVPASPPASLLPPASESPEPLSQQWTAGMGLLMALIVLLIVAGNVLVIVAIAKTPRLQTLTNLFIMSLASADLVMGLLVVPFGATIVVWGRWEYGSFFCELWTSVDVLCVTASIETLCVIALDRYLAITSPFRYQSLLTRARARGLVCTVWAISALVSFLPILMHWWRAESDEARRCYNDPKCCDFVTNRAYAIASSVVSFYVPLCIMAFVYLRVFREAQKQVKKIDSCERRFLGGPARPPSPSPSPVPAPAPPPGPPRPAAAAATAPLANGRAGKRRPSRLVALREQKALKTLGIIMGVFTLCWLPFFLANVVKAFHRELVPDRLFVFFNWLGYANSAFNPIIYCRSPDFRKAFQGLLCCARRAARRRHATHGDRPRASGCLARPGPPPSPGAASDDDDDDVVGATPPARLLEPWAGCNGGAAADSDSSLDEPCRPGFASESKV
Histamine H2 receptor (Homo sapiens), sequence (P25021 whole entry): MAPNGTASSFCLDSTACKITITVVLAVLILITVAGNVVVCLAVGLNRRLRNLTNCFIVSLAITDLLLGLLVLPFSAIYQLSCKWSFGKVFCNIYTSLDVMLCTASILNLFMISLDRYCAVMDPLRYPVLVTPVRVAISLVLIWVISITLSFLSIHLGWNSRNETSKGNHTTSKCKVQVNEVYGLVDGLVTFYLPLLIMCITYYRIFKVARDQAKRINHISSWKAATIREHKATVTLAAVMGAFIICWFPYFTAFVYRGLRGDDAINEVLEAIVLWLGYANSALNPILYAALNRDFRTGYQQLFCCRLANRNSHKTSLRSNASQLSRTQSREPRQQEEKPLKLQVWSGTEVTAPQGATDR
5-hydroxytryptamine receptor 2A (Homo sapiens), sequence (P28223 whole entry): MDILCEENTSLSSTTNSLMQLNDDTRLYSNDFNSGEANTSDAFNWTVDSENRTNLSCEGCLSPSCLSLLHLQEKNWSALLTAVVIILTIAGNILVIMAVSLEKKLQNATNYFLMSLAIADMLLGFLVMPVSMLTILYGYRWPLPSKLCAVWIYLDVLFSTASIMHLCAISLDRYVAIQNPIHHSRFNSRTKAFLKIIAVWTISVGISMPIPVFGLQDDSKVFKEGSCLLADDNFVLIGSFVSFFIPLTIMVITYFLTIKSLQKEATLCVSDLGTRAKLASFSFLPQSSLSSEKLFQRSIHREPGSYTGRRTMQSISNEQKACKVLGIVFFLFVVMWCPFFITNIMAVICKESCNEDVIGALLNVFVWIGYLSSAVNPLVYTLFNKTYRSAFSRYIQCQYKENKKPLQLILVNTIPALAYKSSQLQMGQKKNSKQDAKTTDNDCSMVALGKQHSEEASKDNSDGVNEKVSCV

Compound: CCCCCCCOc1ccc(NC(=O)Oc2cccc(N3CCNCC3)c2)cc1
- inhibition [1]: 7%
- inhibition [2]: 17%
- inhibition [3]: 48%
- inhibition [4]: 9%
- inhibition [5]: 52%
- inhibition [6]: 9%
- inhibition [7]: 14%
- inhibition [8]: 66%
- inhibition [9]: -10%
- inhibition [10]: -1%
- inhibition [11]: 27%
- inhibition [12]: 4%
- inhibition [13]: 42%
- inhibition [14]: -10%
- inhibition [15]: 7%
- inhibition [16]: 16%
- inhibition [17]: -2%
- inhibition [18]: 27%
- inhibition [19]: 23%
- inhibition [20]: 30%
- inhibition [21]: 3%
- inhibition [22]: 57%
- inhibition [23]: 52%
- inhibition [24]: 22%
- inhibition [25]: 35%
- inhibition [26]: -5%
- inhibition [27]: 61%
- inhibition [28]: -1%
- inhibition [29]: 36%
- inhibition [30]: 32%
- inhibition [31]: 3%
- inhibition [32]: 7%
- inhibition [33]: 30%
- inhibition [34]: 77%
- inhibition [35]: 28%
- inhibition [36]: 19%
- inhibition [37]: 1%
- inhibition [38]: 2%
- inhibition [39]: -5%
- inhibition [40]: 70%
- inhibition [41]: 91%
- Ki [42]: > 500 nM
- inhibition [43]: 97%
- inhibition [44]: -7%
- inhibition [45]: -6%
- inhibition [46]: 96%
- inhibition [47]: -9%
- inhibition [48]: -5%
- inhibition [49]: 96%
- inhibition [50]: 103%
- inhibition [51]: 1%
- inhibition [52]: 0%

Compound: C/C(=N\OC(=O)N1CCCCC1)c1cccc(N2CCN(C)CC2)c1
- Ki [42]: > 500 nM

Compound: CCCCOc1ccc(NC(=O)Oc2cccc(N3CCNCC3)c2)cc1
- Ki [42]: > 500 nM

The next lines start with the values.

- Ki [42]: > 500 nM
Compound: NC(=O)c1ccn(-c2cccc(C(=O)N3CCN(CCCCCCc4ccccc4)CC3)c2)c1

- Ki [42]: > 500 nM
Compound: Fc1ccc(OCCCCOc2cccc(N3CCNCC3)c2)cc1
